Read-outs that look alike come from different tables or passages of the source.
Key:
[1] = system: diabetic patients suffering from neuropathy; conditions: cited from earlier work
[2] = system: patients with type 2 diabetes (symptoms of painful peripheral neuropathy); experiment: Clinical Trial BM 14329: multicentre, randomised, double-blind, placebo-controlled, 52 weeks; format: in vivo, human; conditions: for Patients with symptom: Pain / Patients with symptom: Pain, hyperaesthesia, paraesthesia: 3.0 g/day; for Patients with symptom: Pain: n = 217 type 2 diabetes patients without the symptom at basal; for Patients with symptom: Pain, hyperaesthesia, paraesthesia: n = 217 type 2 diabetes patients without the symptoms at basal
Procedure: (§1) A multicentre, randomised, double-blind, placebo-controlled clinical trial of 52 weeks' duration was conducted in patients with type 2 diabetes suffering from diabetic peripheral neuropathy.
(§2) The patients were treated with acetyl L-carnitine at a dose of 0.5 grams or 1 gram, three times daily, or with placebo for 52 weeks.
(§3) The patients recruited into the trial were patients of male and female sex and were aged from 18 to 70 years, in whom diabetes had been diagnosed more than one year earlier and presenting HbA1c greater than 5.9%.
(§4) After 12, 26 and 52 weeks of treatment, the presence and intensity of pain, paraesthesia and hyperaesthesia, amongst other variables, were assessed as characteristic symptoms of painful peripheral neuropathy in patients who at the time of recruitment presented no such symptoms.

[3] = system: patients with type 2 diabetes (symptoms of painful peripheral neuropathy); experiment: Clinical Trial BM 14330: multicentre, randomised, double-blind, placebo-controlled, same characteristics as Example 1; format: in vivo, human; conditions: for Patients with symptom: Pain / Patients with symptom: Pain, hyperaesthesia, paraesthesia: 3.0 g/day; for Patients with symptom: Pain: n = 181 type 2 diabetes patients without the symptom at basal; for Patients with symptom: Pain, hyperaesthesia, paraesthesia: n = 181 type 2 diabetes patients without the symptoms at basal
Procedure: as §1, §2, §3, §4
A multicentre randomised, double-blind, placebo-controlled clinical trial was conducted with the same characteristics as the clinical trial described in Example 1.

CC(=O)O[C@H](CC(=O)[O-])C[N+](C)(C)C [Acetyl L-carnitine, acetyl L-carnitine]
Nerve conduction velocity ([1]; diabetic patients suffering from neuropathy, Drugs 1997 September: 54 (3) 414-421): improves nerve conduction velocity
Nerve conduction velocity ([1]; diabetic patients suffering from polyneuropathy, Journal of the Neurological Sciences, 1997, Suppl. to Vol 150): improves nerve conduction velocity
Relief of pain symptoms and regeneration of nerve fibres ([1]; patients suffering from stabilised diabetic neuropathy, Diabetes Care, 2005, 28(1): 89-94): useful for relieving the pain symptoms and for regenerating nerve fibres
Patients with symptom: Pain ([2]; 12 weeks): 17.1%
Patients with symptom: Pain, hyperaesthesia, paraesthesia ([2]; 12 weeks): 35.5%
Patients with symptom: Pain ([2]; 26 weeks): 20.3%
Patients with symptom: Pain, hyperaesthesia, paraesthesia ([2]; 26 weeks): 38.6%
Patients with symptom: Pain ([2]; 52 weeks): 29.5%
Patients with symptom: Pain, hyperaesthesia, paraesthesia ([2]; 52 weeks): 47.5%
Prevention of symptoms typical of diabetic painful peripheral neuropathy (pain, hyperaesthesia, paraesthesia) ([2]; patients without such symptoms at entry, only in type 2 diabetes and at the higher dose): capable not only of curing but also of preventing the symptoms
Ability to prevent the onset of symptoms associated with diabetic painful peripheral neuropathy ([2]; summary of Tables 1-3, 3 grams/day): statistically significant ability to prevent the onset of symptoms
Curative effect on symptoms of diabetic peripheral neuropathy already present at the start of the trial ([2]; treatment for 26 or 52 weeks, effect better only in patients with type 2 diabetes): capable of curing the symptoms of diabetic peripheral neuropathy
Patients with symptom: Pain ([3]; 12 weeks): 27.6%
Patients with symptom: Pain, hyperaesthesia, paraesthesia ([3]; 12 weeks): 42.5%
Patients with symptom: Pain ([3]; 52 weeks): 35.9%
Patients with symptom: Pain, hyperaesthesia, paraesthesia ([3]; 52 weeks): 48.1%
Patients with symptom: Pain ([3]; Table 5, head prints 12 weeks): 28.7%
Patients with symptom: Pain, hyperaesthesia, paraesthesia ([3]; Table 5, head prints 12 weeks): 43.1%
Ability to prevent the onset of symptoms associated with diabetic painful peripheral neuropathy ([3]; summary of Tables 4-6, 3 grams/day): statistically significant ability to prevent the onset of symptoms

Reference: US8952059B2, “Acetyl L-carnitine for the preparation of a medicament for the prevention of painful peripheral neuropathy in patients with type 2 diabetes” (Sigma-Tau Industrie Farmaceutiche Riunite S.P.A., priority 2005, dated 2015)
